Assay results: patent publication US11078202B2, “β-lactamase inhibitor and use thereof” (priority 2018, dated 2021)
Structures can show the parent of a compound that is named as a salt.

How the values were obtained:
Format in all cases: cell-based
[1] = test system: Acinetobacter baumannii XNWB 0007; assay: MIC assay of test compounds combined with imipenem (4 μg/mL); conditions: imipenem 4 μg/mL fixed
Outline: (§1)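 Inoculum: TSA-grown colonies (35±2 °C, 20-24 h, subcultured once), NaCl 0.9% suspension at OD600 0.1-0.15, then 300× dilution into 1.1×CAMHB. Serial compound dilutions with the partner antibiotic at a fixed level; ambient-air incubation 16-20 h, 35±2 °C; CLSI-based MIC readout.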

[2] = test system: Klebsiella pneumoniae XNWB 0001; assay: as above; conditions: imipenem 4 μg/mL fixed
Outline: as §1

[3] = test system: Klebsiella pneumoniae XNWB 0003; assay: as above; conditions: imipenem 4 μg/mL fixed
Outline: as §1

[4] = test system: Klebsiella pneumoniae XNWB 0006; assay: as above; conditions: imipenem 4 μg/mL fixed
Outline: as §1

[5] = test system: Pseudomonas aeruginosa XNWB 0008; assay: as above; conditions: imipenem 4 μg/mL fixed
Outline: as §1

[6] = test system: Klebsiella pneumoniae XNWB 0002; assay: as above; conditions: imipenem 4 μg/mL fixed
Outline: as §1

[7] = test system: Klebsiella pneumoniae XNWB 0005; assay: as above; conditions: imipenem 4 μg/mL fixed
Outline: as §1

[8] = test system: Klebsiella pneumoniae XNWB 0004; assay: as above; conditions: imipenem 4 μg/mL fixed
Outline: as §1

[9] = test system: Acinetobacter baumannii XNWB 0007; assay: MIC assay of test compounds combined with ceftazidime (8 μg/mL); conditions: ceftazidime 8 μg/mL fixed
Outline: as §1

[10] = test system: Klebsiella pneumoniae XNWB 0001; assay: as above; conditions: ceftazidime 8 μg/mL fixed
Outline: as §1

[11] = test system: Klebsiella pneumoniae XNWB 0003; assay: as above; conditions: ceftazidime 8 μg/mL fixed
Outline: as §1

[12] = test system: Klebsiella pneumoniae XNWB 0006; assay: as above; conditions: ceftazidime 8 μg/mL fixed
Outline: as §1

[13] = test system: Pseudomonas aeruginosa XNWB 0008; assay: as above; conditions: ceftazidime 8 μg/mL fixed
Outline: as §1

[14] = test system: Klebsiella pneumoniae XNWB 0002; assay: as above; conditions: ceftazidime 8 μg/mL fixed
Outline: as §1

[15] = test system: Klebsiella pneumoniae XNWB 0005; assay: as above; conditions: ceftazidime 8 μg/mL fixed
Outline: as §1

[16] = test system: Klebsiella pneumoniae XNWB 0004; assay: as above; conditions: ceftazidime 8 μg/mL fixed
Outline: as §1

N[C@H]1C[C@@H](c2nnc([C@@H]3CC4(CC4)[C@@H]4CN3C(=O)N4OS(=O)(=O)O)o2)C1 [Example 15, (1R,4S)-4-(5-((1S,3R)-3-aminocyclobutyl)-1,3,4-oxadiazol-2-yl)-6-oxo-5,7-diazaspiro [bicyclo[3.2.1]octane-2,1′-cyclopropan]-7-yl sulfate]
A (A: <8 μg/mL): The minimum concentration of test compounds combined with imipenem (4 μg/mL) for bacteriostasis [2] | The minimum concentration of test compounds combined with imipenem (4 μg/mL) for bacteriostasis [3] | The minimum concentration of test compounds combined with imipenem (4 μg/mL) for bacteriostasis [4] | The minimum concentration of test compounds combined with imipenem (4 μg/mL) for bacteriostasis [6] | The minimum concentration of test compounds combined with imipenem (4 μg/mL) for bacteriostasis [7] | The minimum concentration of test compounds combined with imipenem (4 μg/mL) for bacteriostasis [8] | The minimum concentration of test compounds combined with ceftazidime (8 μg/mL) for bacteriostasis [10] | The minimum concentration of test compounds combined with ceftazidime (8 μg/mL) for bacteriostasis [11] | The minimum concentration of test compounds combined with ceftazidime (8 μg/mL) for bacteriostasis [12] | The minimum concentration of test compounds combined with ceftazidime (8 μg/mL) for bacteriostasis [14] | The minimum concentration of test compounds combined with ceftazidime (8 μg/mL) for bacteriostasis [15]
C (C: 16-128 μg/mL): The minimum concentration of test compounds combined with imipenem (4 μg/mL) for bacteriostasis [1] | The minimum concentration of test compounds combined with ceftazidime (8 μg/mL) for bacteriostasis [9] | The minimum concentration of test compounds combined with ceftazidime (8 μg/mL) for bacteriostasis [13]
B (B: 8-16 μg/mL): The minimum concentration of test compounds combined with imipenem (4 μg/mL) for bacteriostasis [5] | The minimum concentration of test compounds combined with ceftazidime (8 μg/mL) for bacteriostasis [16]

N[C@H]1C[C@H](c2nnc([C@@H]3CC4(CC4)[C@@H]4CN3C(=O)N4OS(=O)(=O)O)o2)C1 [Example 16]
B (B: 8-16 μg/mL): The minimum concentration of test compounds combined with imipenem (4 μg/mL) for bacteriostasis [1] | The minimum concentration of test compounds combined with ceftazidime (8 μg/mL) for bacteriostasis [13] | The minimum concentration of test compounds combined with ceftazidime (8 μg/mL) for bacteriostasis [16]
C (C: 16-128 μg/mL): The minimum concentration of test compounds combined with ceftazidime (8 μg/mL) for bacteriostasis [9]
A (A: <8 μg/mL): The minimum concentration of test compounds combined with imipenem (4 μg/mL) for bacteriostasis [2] | The minimum concentration of test compounds combined with imipenem (4 μg/mL) for bacteriostasis [3] | The minimum concentration of test compounds combined with imipenem (4 μg/mL) for bacteriostasis [4] | The minimum concentration of test compounds combined with imipenem (4 μg/mL) for bacteriostasis [5] | The minimum concentration of test compounds combined with imipenem (4 μg/mL) for bacteriostasis [6] | The minimum concentration of test compounds combined with imipenem (4 μg/mL) for bacteriostasis [7] | The minimum concentration of test compounds combined with imipenem (4 μg/mL) for bacteriostasis [8] | The minimum concentration of test compounds combined with ceftazidime (8 μg/mL) for bacteriostasis [10] | The minimum concentration of test compounds combined with ceftazidime (8 μg/mL) for bacteriostasis [11] | The minimum concentration of test compounds combined with ceftazidime (8 μg/mL) for bacteriostasis [12] | The minimum concentration of test compounds combined with ceftazidime (8 μg/mL) for bacteriostasis [14] | The minimum concentration of test compounds combined with ceftazidime (8 μg/mL) for bacteriostasis [15]
